Results: US20210213063A1, “COMBINATION THERAPY WITH CHIMERIC ANTIGEN RECEPTOR (CAR) THERAPIES” (Novartis AG, priority 2018, published 2021)

Assays:
MCL = settings: ibrutinib added to CART19 therapy
[1] = system: relapsed/refractory diffuse large B-cell lymphoma (DLBCL); test: JULIET (NCT02445248) pivotal phase 2 trial of tisagenlecleucel in adult r/r DLBCL; assay type: in vivo, human
Description: This Example describes the JULIET (NCT02445248) clinical trial, which is a single-arm, open-label, multicenter, global, pivotal phase 2 trial of tisagenlecleucel, a chimeric antigen receptor (CAR)-T cell therapy targeting CD19, that has shown a high rate of durable complete responses (CR) and a manageable safety profile in adult patients with relapsed/refractory (r/r) diffuse large B-cell lymphoma (DLBCL). The primary objective was met at the interim analysis, with an overall response rate (ORR) of 59% (CR, 43%; partial response [PR], 16%). An updated analysis of the JULIET trial is presented herein with 19 months of follow-up, an additional 5 months since the previous report.
The primary endpoint was ORR (CR+PR) per independent review committee. Efficacy results are reported for patients in the main cohort with ≥3 months follow-up or earlier discontinuation; safety is reported for all infused patients.
At data cutoff (21 May 2018), 167 patients were enrolled and 115 were infused (99 with US-manufactured [main cohort] and 16 with EU-manufactured [cohort A] tisagenlecleucel) with a single dose of tisagenlecleucel (median, 3.0×10^8 [range, 0.1-6.0×10^8] CAR19-positive viable T cells). 90% of patients received bridging therapy and 93% received lymphodepleting chemotherapy. Median time from infusion to data cutoff was 19.3 months. Median age was 56 years (range, 22-76); 23% were ≥65 years. At study entry, 77% of infused patients had stage III/IV disease, 17% had double/triple hits in MYC/BCL2/BCL6. 55% and 43% had germinal center and activated B-cell molecular subtypes, respectively. 51% of patients had received ≥3 prior lines of antineoplastic therapy (range, 1-6); 49% had undergone a prior ASCT. All 99 patients in the main cohort had ≥3 months of follow-up or discontinued earlier and were evaluable for efficacy. ORR was 54% (95% CI, 43%-64%) with 40% CR and 13% PR. ORR was consistent across prognostic subgroups (including prior ASCT and double/triple-hit lymphoma) Median duration of response (DOR) was not reached; the probability of being relapse-free was 66% (95% CI, 51%-78%) at 6 months and 64% (95% CI, 48%-76%) at 12 months. DOR was similar by age group (≥ vs <65y) and by relapsed or refractory status (Figure). Median OS among all infused patients was 11.1 months (95% CI, 6.6-NE); OS probability at month 12, 48% (95% CI, 38%-57%; max follow-up, 29 months). No patients proceeded to allogeneic/ASCT while in remission.

Molecule: C=CC(=O)N1CCC[C@@H](n2nc(-c3ccc(Oc4ccccc4)cc3)c3c(N)ncnc32)C1 [ibrutinib, 1-[(3R)-3-[4-Amino-3-(4-phenoxyphenyl)-1H-pyrazolo[3,4-d]pyrimidin-1-yl]piperidin-1-yl]prop-2-en-1-one]
- CART19-mediated CRS (MCL): reduced the CART19-mediated CRS
- survival of the mice (MCL): prolonged survival

Molecule: tisagenlecleucel
- Median OS ([1]; all infused patients, 95% CI 6.6-NE): 11.1 months
- probability of being relapse-free ([1]; at 6 months, 95% CI 51%-78%): 66%
- probability of being relapse-free ([1]; at 12 months, 95% CI 48%-76%): 64%
- OS probability ([1]; at month 12, 95% CI 38%-57%): 48%
- CR ([1]; interim analysis): 43%
- overall response rate (ORR) ([1]; interim analysis): 59%
- partial response [PR] ([1]; interim analysis): 16%
- Median duration of response (DOR) ([1]; updated analysis): not reached
- ORR ([1]; updated analysis, data cutoff 21 May 2018, 99 patients main cohort, 95% CI 43%-64%): 54%
- CR ([1]; updated analysis, main cohort): 40%
- PR ([1]; updated analysis, main cohort): 13%
